Laboratory results published in US20260274794A1, “COMPOUNDS, COMPOSITIONS, AND METHOD OF INHIBITING TAU PROTEIN AND ALPHASYNUCLEIN AGGREGATION” (Purdue Research Foundation, priority 2023, published 2026).
“Also recorded” adds a separate entry of the source.

Assays:
[1] = tested on: M17D-TR/αS-3K::YFP neuroblastoma cells; assay: α-Syn inclusion assay in dox-inducible neuroblastoma cells; type: cell-based; conditions: for reduction of inclusions: lower concentrations (below 40 μM)
Description: Dox-inducible neuroblastoma cells M17D-TR/αS-3K::YFP were used according to the published experimental procedure. For this cell-based assay, the cellular density consisted of 30,000 cells per well in a 96-well plate format. After 24 h of seeding the plates, compounds were introduced at ranging concentrations of 5 to 40 μM for a period of 24 h. After, the induction of the αS-3K::YFP transgene expression was initiated by adding dox (1 ug per mL, final concentration in culture media). Cells were incubated in the Incucyte Zoom 2000 platform (Essen Biosciences), where the acquisition of images (green, bright field) occurred continuously. After 48 hours of induction, inclusion formation and cell growth were assessed. To determine the level of different proteins by western blotting, α-syn monoclonal antibody 41312 (Thermofisher, Waltham, MA; 1:1000) and GAPDH polyclonal antibody (Sigma-Aldrich, St. Louis, MO, G9545; 1:5000) were used.
To evaluate the effects of compounds on inclusion formation and cell survival, M17D neuroblastoma cells that express an α-syn-derived αS-3K::YFP fusion protein in a doxycycline-inducible fashion were used. The cells were treated with 0.1% DMSO (control) and compounds 13, 2, 8, and 17 at various concentrations at t=24 hrs. Cells were induced with dox at t=48 hours. Punctate YFP signals were measured and normalized to 0.1% DMSO at t=96 hours. Eight independent experiments (N=8; n=14; except DMSO, n=30) were performed. The familial PD-linked α-syn missense mutation E46K is amplified by α-syn E35K+E46K+E61K (=αS3K), which results in round cytoplasmic α-syn-based inclusions in cultured cells. αS3K expression is responsible for cell stress/toxicity and delayed growth of neuroblastoma cells. […] Therefore, this assay was selected to evaluate the effect of the compound 13, as a weak to non-inhibitor of aggregation, and the three best anti-aggregation inhibitors, namely compounds 2, 8, and 17 (FIG. 6). […] Western blot analyses for total α-syn, normalized to calnexin (loading control), were performed to determine the compound effect on α-syn protein level due to degradation or non-specific effect on transgene expression.

[2] = molecular target: α-syn (Homo sapiens, UniProt P37840); assay: Transmission electron microscopy of α-syn fibrils; type: biochemical; conditions: 60 μM α-syn: 600 μM compound, 24-hours exposure
Description: (§1) For the examination of ultrastructural changes, 60 μM of proteins (α-syn and tau isoform 2N4R) in contact with DMSO or 600 μM of compound were incubated in a 10 mM PBS buffer (pH 7.4) for 24 h at 37° C. (molar ratio 1:10). Samples at the end of tau ThT kinetics of fibril formation were also analyzed at similar molar ratio with 6 time less concentrated samples. For the preparation of grids prior examination, a volume of 10 μL if each sample was applied on a 400-mesh Formvar-carbon-coated copper grid (Electron Microscopy Sciences, Hatfield, PA). The grids were incubated for 1 minute with the sample and after washed three times with distilled water, After being air-dried, a fresh solution of 1% uranyl acetate was applied for 1 minute. Solution was absorbed with filter paper and grids were air-dried. Evaluation of grids were performed using a transmission microscope (JEOL 1400 Flash, Japan). Transmission electron micrographs were captured using an accelerating voltage of 100 kV and magnification of 40 k.
(§2) To confirm that the reduction of ThT fluorescence observed with compounds 2, 8, and 17 was due to the reduction in protein fibrillization rather than interference with ThT [31], transmission electron microscopy (TEM) of α-syn and tau isoform 2N4R with these same compounds was utilized to visualize direct changes in α-syn and tau isoform 2N4R fibril morphology after 24-hours exposure (FIG. 5). […] Results were reproduced using the tau isoform 2N4R and different compounds at the above-mentioned higher concentrations using the identical molar ratio and incubation time. […] Compound 2 was the only candidate resulting in a grid quasi exempt of fibrils.

[3] = molecular target: T1, tau isoform 2N4R (Homo sapiens, UniProt P10636); assay: Transmission electron microscopy of tau isoform 2N4R fibrils; type: biochemical; conditions: compound 100 μM, 50-hours exposure; reproduced at higher concentrations, molar ratio 1:10
T1 construct: made in house; host or cells: E. coli BL21 (DE3), vector pRK172
T1 sequence (P10636 1-441 isoform P10636-8): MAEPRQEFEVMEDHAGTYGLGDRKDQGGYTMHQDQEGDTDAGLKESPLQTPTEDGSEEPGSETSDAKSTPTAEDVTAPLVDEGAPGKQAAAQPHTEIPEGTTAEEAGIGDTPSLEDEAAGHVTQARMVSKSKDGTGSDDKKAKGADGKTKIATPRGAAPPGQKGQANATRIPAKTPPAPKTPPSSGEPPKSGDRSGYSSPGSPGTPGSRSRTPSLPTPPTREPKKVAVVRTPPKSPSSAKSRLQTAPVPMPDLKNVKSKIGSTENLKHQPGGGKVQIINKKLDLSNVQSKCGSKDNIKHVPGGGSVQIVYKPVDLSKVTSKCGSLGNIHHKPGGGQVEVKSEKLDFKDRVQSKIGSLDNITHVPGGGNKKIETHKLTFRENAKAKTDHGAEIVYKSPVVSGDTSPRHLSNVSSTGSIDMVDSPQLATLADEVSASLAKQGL
Description: as §1, §2

[4] = molecular target: T1, tau isoform 2N4R; assay: ThT fluorescence assay of tau isoform 2N4R fibril formation; type: biochemical; conditions: for effect on tau isoform 2N4R fibril formation (ThT): compound 100 μM, tau 2N4R 6 μM; for tau isoform 2N4R fibrillization, ThT dose-response: compound 3.125-100 μM, tau 6 μM, plateau phase
Description: ThT fluorescence is routinely established assay to follow the kinetics of α-syn fibril formation with different drug candidate treatments. Compounds were first tested at a final of concentration of 100 μM and α-syn and 2N4R tau were prepared at 2 μM and 6 μM, respectively. Compounds with highest anti-fibrillary activity were tested at 3.125, 6.25, 12.5, 25, 50, and 100 μM to obtain dose-response curves.
Concerning the non-phosphorylated tau (isoform 2N4R) kinetics of fibril formation, ThT was performed with the tau protein solution was diluted to a final concentration of 6 μM in PBS (pH 7.4) supplemented with 1.5 μM heparin, 20 μM ThT, 2.5 mM DTT, and 100 μM compound. Aliquots of the diluted protein solution (100 μL each) were pipetted into the wells of a 96-well plate, and a Teflon ball was added to each well. The plate was incubated at 37° C. with constant shaking at 1,000 rpm in a Tecan Stark plate reader. ThT fluorescence was measured every 15 min with excitation and emission wavelengths of 440 nm and 480 nm, and the data were plotted using GraphPad Prism.
Various structural analogs were first tested at a final concentration of 100 μM in the presence of tau 2N4R at 6 μM. Compounds 2, 4-8, and 17 were pre-selected with α-syn ThT assay prior to evaluation on the tau isoform 2N4R.

Row | Compound | reduction of inclusions [1] | α-syn fibril morphology (TEM) [2] | tau isoform 2N4R fibril morphology (TEM) [3] | effect on tau isoform 2N4R fibril formation (ThT) [4] | toxicity (confluence) ([1]; 40 μM) | inclusion formation ([1]; 40 μM, M17D αS3K cells) | α-syn protein level (Western blot) ([1]; low concentration (5-10 μM) only) | tau isoform 2N4R fibrillization, ThT dose-response [4]
1 | O=C(Nc1ccc2[nH]ccc2c1)c1ccccc1Cl [Compound 13, 2-chloro-N-(1H-indol-5-yl)benzamide] | None of these compounds exhibited a significant reduction of inclusions | mature fibrils after 24 hours | long fibrils admixed with amorphous materials and/or debris | increased the fluorescence intensity | – | – | – | –
2 | O=C(Nc1cccc2[nH]ccc12)c1ccc(F)cc1 [Compound 8, 4-fluoro-N-(1H-indol-4-yl)benzamide] | None of these compounds exhibited a significant reduction of inclusions | clear effect in reducing α-syn fibrillization; also recorded: most drastic effect, with immature fibrils surrounded by irregular globular structures | levels of tau fibril at 20 μM were reduced | good inhibitory effect | small degree of toxicity | reduced inclusion formation | reduced α-syn levels | reduction in protein fibrillization when subjected to higher concentrations
3 | O=C(Nc1cccc2[nH]ccc12)c1ccccc1 [Compound 2, N-(1H-indol-4-yl)benzamide] | None of these compounds exhibited a significant reduction of inclusions | clear effect in reducing α-syn fibrillization | levels of tau fibril at 20 μM were reduced; also recorded: Fewer and not well-defined fibrils | weaker anti-fibrilization effect | – | – | – | reduction in protein fibrillization when subjected to higher concentrations
